Reference: EP1464649A2, “Sugar derivatives comprising oxiranes or alpha,beta-unsaturated gamma-lactones, process for their preparation and their utilisation as pesticides” (Instituto Politécnico de Santarém / Escola Superior Agraria, priority 2003, dated 2004)
In brackets after ≈: the same amount, converted by molar mass. Entries after “also recorded” stand apart in the source; their conditions may differ.

Assays:
[1] = test system: brine shrimp A. salina larvae; assay: in vivo; type: in vivo; settings: Method F, 24 hour mortalities
Procedure: (§1) Freshly hatched brine shrimps were prepared by adding aquarium brine shrimp eggs to salt water (15 g sea salt per litre water). The following day hatchlings were separated from eggs and empty egg cases, using their phototropic movement and a Pasteur pipette.
(§2) Into each of a set of small glass vials was pipetted 195 µL of brine containing 5 shrimp larvae, using a micropipette. The solution of the test compound in 5 µL acetone was added, the vial closed and kept at 30±1°C for observation.
(§3) Dead and alive shrimps were counted, at 1 and 24 hours after treatment, using a microscope. Six concentrations and a control were used with 10 shrimps treated.
(§4) A blank test was performed for comparison of the results.
(§5) Dosages used in insect treatments were based upon the amount of compound applied to each insect. For the shrimps the final concentrations of the compounds in the immersion brine were used.
(§6) The 24 hour mortalities were used to calculate the LD50/LC50 using regression analysis of the probability percent mortality (probit) against log dose/concentration.^30 This was calculated using PoloPC software (LeOra Software, Berkeley, CA, 1994).

[2] = test system: adult fruit fly (D. melanogaster); assay: Method A: topical treatment of adult fruit fly; type: in vivo, Drosophila melanogaster; settings: for LD50: Method A, topical, adult fruit flies, 24 hour mortalities; for activity against adult fruit flies: statement in words from LD50 values
Procedure: A culture of fruit flies (D. melanogaster) was used in the production of adult flies (approx 0.22 mg) of about seven days.
Serial dilutions of the compounds were prepared in acetone, and volumes of approximately 0.2 µL were applied to the ventral surface of each insect, using a calibrated PAX 100 microapplicator and a 1 mL syringe.
The fruit flies, in groups of 5, were anaesthetised using carbon dioxide. Prior to recovery the flies were placed in a containing vial and kept at 30±1°C, for observations of mortality at 1, 2, 3 and 24 hours after treatment.
For this purpose solutions of 6 different concentrations and a control were employed in groups of 12 and 20 insects. Control mortalities were normally zero but occasionally rose to 5-10%.
as §5, §6

adult fruit flies = assay: Method B: second method for topical treatment of adult fruit flies; type: in vivo, Drosophila melanogaster; settings: topical 1 µL acetone solution
Procedure: Different dilutions of the compounds in acetone were prepared and applied to individual fruit flies using a Gilson piston micropipette.
Individual flies were held in padded forceps and 1 µL of acetone solution was applied. The acetone was allowed to evaporate before placing the fly into the vial for observation, kept at 30±1°C, following the standard methodology.
as §6

[3] = test system: glasshouse white fly (T. vaporariorum); assay: Method G: foliar treatment of glasshouse white fly; type: in vivo; settings: for efficacy against white fly: statement in words
Procedure: Seedlings of tomato plants were infested with adult white fly. Selected leaves of the tomato plants were excised and carefully trimmed to 3 leaflets without disturbing the infestation. These were placed in glass tubes containing water and the leaflets were then sprayed on both sides with a small sprayer delivering for each one 200 µL of a solution of the test compound dissolved in 30% acetone in water.
Controls were sprayed with the solvent alone.
Counts of insects on the individual leaflets were made immediately after spraying and then at 14 hours following.
Where single dose treatments were used (in the case of whitefly assays), no statistics are available and the results are expressed as percent effect.
Five compounds were tested, which were applied spraying 600 µL of each compound solution (prepared according to method G) on the leaves of tomato plants infested with a known number of adult whitefly. After 14 hours, the number of dead insects (or eventually of insects that disappeared) was counted. These assays were performed at room temperature, between 20 and 25°C.

[4] = test system: house fly adults (M. domestica); assay: Method E: topical treatment of house fly adults; type: in vivo, Musca domestica; settings: adult house flies
Procedure: A culture of an insecticide-susceptible strain, Cooper, was established. Three-day-old adult house flies (body weight about 1.8 mg) were anaesthetised with carbon dioxide. Using the PAX microapplicator, a volume of 1 µL of acetone solution of the test compounds was applied to the dorsal cuticle, holding the fly in padded forceps.
Groups of flies were placed into closed vials, kept at 30 ±1°C, for observation.
as §6

fruit fly larvae = assay: Method D: topical treatment of fruit fly larvae; type: in vivo, Drosophila melanogaster; settings: for LD50: Method D, topical, fruit fly larvae; for toxicity for fruit fly larvae compared with adult flies: statement in words
Procedure: Fruit fly larvae were separated from the growing medium and second and third instars were topically treated with 0.2 µL acetone solutions of the compounds using a PAX microapplicator.
Larvae were held in padded forceps for dosing and then placed on moistened filter paper, at 30±1°C, for observation.
as §6

in vivo = type: in vivo; settings: in vivo; Method F, brine shrimp larvae, 24 hour mortalities
Procedure: as §1, §2, §3, §4, §5, §6

Molecule | LC50 [1] | LD50 [2] | activity against adult fruit flies [2] | also measured
CC1=C[C@H]([C@H]2O[C@@H]3OC(C)(C)O[C@@H]3[C@H]2OCc2ccccc2)OC1=O [Compound 1, 3-O-benzyl-6,7-dideoxy-1,2-O-isopropylidene-7-methyl-α-D-gluco-oct-6-enefuranurono-8,5-lactone] | 100.62 µg/mL (≈ 290 µM) | 0.00002 µg/insect | extremely active | –
CC1=C[C@H]([C@H]2O[C@@H]3OC(C)(C)O[C@@H]3[C@@H]2OCc2ccccc2)OC1=O [Compound 2, 3-O-benzyl-6,7-dideoxy-1,2-O-isopropylidene-7-methyl-α-D-alo-oct-6-enefuranurono-8,5-lactone] | 64.30 µg/mL (≈ 186 µM) | – | extremely active | LD50 (adult fruit flies): 0.00398 µg/insect
CC1(C)O[C@H]2O[C@H]([C@H]3C=CC(=O)O3)[C@@H](OCc3ccccc3)[C@H]2O1 [Compound 3, 3-O-benzyl-6,7-dideoxy-1,2-O-isopropylidene-α-D-alo-oct-6-enefuranurono-8,5-lactone] | 144.71 µg/mL (≈ 435 µM) | 5.02x10^-6 µg/insect | extremely active | % Control of White Fly ([3]; foliar, 14 h, 1.3 ug/mL): 0%
CC1(C)O[C@H]2O[C@H]([C@H]3C=CC(=O)O3)[C@H](OCc3ccccc3)[C@H]2O1 [Compound 4, 3-O-benzyl-6,7-dideoxy-1,2-O-isopropylidene-α-D-gluco-oct-6-enefuranurono-8,5-lactone] | 358.92 µg/mL (≈ 1080 µM) | 0.00012 µg/insect | – | % Control of White Fly ([3]; foliar, 14 h, 2.5 ug/mL): 50%; efficacy against white fly [3]: show efficacy as insecticides; also recorded: promising for activity against the white fly
CC(=O)OC[C@H]1OC(=O)C(Br)=C[C@@H]1OC(C)=O [Compound 5, 4,6-di-O-acetyl-2-bromo-2,3-dideoxy-D-erythro-hex-2-enone-1,5-lactone] | 38.36 µg/mL (≈ 125 µM) | 0.00016 µg/insect | – | LD50 [4]: 1.065 µg/insect; LD50 (fruit fly larvae): 4.75 µg/insect; toxicity for fruit fly larvae compared with adult flies (fruit fly larvae): less toxic for larvae than for adult flies
COC1OC(C2CC(C)([Se]c3ccccc3)C(=O)O2)C2OC12 [Compound 6, methyl (7R)-/(7S)-2,3-anhydro-6,7-dideoxy-7-methyl-7-phenylselenyl-β-L-gulo-octofuranurono-8,5-lactone] | 125.48 µg/mL (≈ 340 µM) | 0.00015 µg/insect | – | % Control of White Fly ([3]; Concentration 1.3 µg/mL, sprayed tomato leaves, 14 hours): 0%
CC1(C)OC2OC(C3CC(C)([Se]c4ccccc4)C(=O)O3)C(OCc3ccccc3)C2O1 [Compound 8, (7R)-/(7S)-3-O-Benzyl-6,7-dideoxy-1,2-O-isopropylidene-7-methyl-7-phenylselenyl-α-D-gluco-octofuranurono-8,5-lactone] | 220.41 µg/mL (≈ 438 µM) | 0.00037 µg/insect | – | LD50 [4]: 0.644 µg/insect; toxicity for fruit fly larvae compared with adult flies (fruit fly larvae): less toxic for larvae than for adult flies
O=[N+]([O-])NC1=NCCN1Cc1ccc(Cl)nc1 [Imidacloprid, reference compound] | – | 0.01253 µg/insect | – | LC50 at 24 h (in vivo): 0.0312 µg/mL (≈ 0.122 µM)
(7R)-/(7S)-3,6,7-Trideoxy-1,2-O-isopropylidene-7-methyl-7-phenylselenyl-α-D-ribo-octofuranurono-8,5-lactone [Compound 7] | 261.04 µg/mL | 0.0002 µg/insect | – | LD50 (fruit fly larvae): 0.968 µg/insect; % Control of White Fly ([3]; Concentration 4.8 µg/mL, sprayed tomato leaves, 14 hours): 0%
Methyl 2,3;5,6-Dianhydro-β-L-gulofuranoside [Compound 9] | 671.50 µg/mL | 0.00003 µg/insect | extremely active | % Control of White Fly ([3]; Concentration 2.5 µg/mL, sprayed tomato leaves, 14 hours): 85%; efficacy against white fly [3]: show efficacy as insecticides; also recorded: promising for activity against the white fly
